Data as given in patent US20240385182A1, “MASKED FLUOROGENIC LIPID COMPOUNDS, LIPID PARTICLES COMPRISING THE SAME, AND METHODS OF USE THEREOF” (Rutgers, The State University of New Jersey, priority 2023, published 2024).
Entries after “also recorded” stand apart in the source; their conditions may differ.

Experiments:
[1] = Photophysical characterization of probes and uncaged forms (relative fluorescence quantum yield, extinction coefficient, brightness); assay type: physicochemical
Procedure, shortened: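 Relative fluorescence quantum yields of caged probes and uncaged forms, referenced to coumarin 343 (ΦF 0.63 in ethanol) for triazole-coumarins and fluorescein (ΦF 0.79 in ethanol) for triazole-fluoresceins. Measured in Tris 50 mM, pH 7.5; coumarin largely aryloxide (TEG-TC pKa 7.1±0.1 by UV-Vis).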

[2] = Confocal imaging of giant vesicles containing DPPC-TC-ONOO^− treated with redox species
Experimental: FIG. 8A: conceptual illustration of function of the model protocell. FIG. 8B: confocal images acquired for untreated (top panel) and peroxynitrite-treated (middle and bottom panels) GVs. FIG. 8C: confocal images acquired for GVs treated with other RNS and ROS. FIGS. 8B-8C: vesicles were prepared from POPC (98.5%, molar ratio) and DPPC-TC-ONOO^− (1%) via electroformation. Liss-Rhod PE dye (red, 560 nm excitation) was used at 0.5 mol % to label vesicle membranes. […] Scale bar=5 μm. In most biomimetic systems that rely on compartmentalization, physical membrane boundaries are comprised of self-assembled lipids. Biomimetic membranes can be represented by GVs, which have dimensional properties (1-30 μm in diameter) relevant to those of mammalian cells (10-100 μm), display physical characteristics feasible for confocal fluorescence imaging, and are utilized for bottom-up construction of biomimetic systems. […] Given the longer timescale required for data acquisition in microscopy compared to fluorescence measurements by plate reader, the pH of imaging buffers was set to 8.5, which extended the lifetime of peroxynitrite. […] Vesicle size distribution was analyzed by dynamic light scattering (DLS), confirming the presence of GVs. […] GVs were then imaged using fluorescence confocal microscopy. […]

CCCCCCCCCCCCCCCC(=O)OCC(COP(=O)([O-])OCC[N+](C)(C)Cc1cn(-c2cc3ccc(OC(=O)Oc4ccc(CCC(=O)C(F)(F)F)cc4)cc3oc2=O)nn1)OC(=O)CCCCCCCCCCCCCCC (racemic) [DPPC-TC-ONOO^−]
Emmax [1]: 471.2 nm | Exmax [1]: 395.0 nm | Ext. Coeff. [1]: 2784 M⁻¹ cm⁻¹ | GV membrane fluorescence at 405 nm excitation ([2]; GVs of POPC and DPPC-TC-ONOO^− (~99:1), ONOO^− 100 μM): substantial increase in membrane fluorescence; also recorded: strong fluorescence | GV fluorescence at 405 nm excitation ([2]; GVs of POPC and DPPC-TC-ONOO^−, other redox species (NO·, H2O2, HO·, ^1O2, O2·^−) 100 μM, 5 min): essentially no fluorescence generation; also recorded: minimal fluorescence
